{"source": "ChEMBL document CHEMBL3351479", "about": "“Novel acylureidoindolin-2-one derivatives as dual Aurora B/FLT3 inhibitors for the treatment of acute myeloid leukemia” (Eur J Med Chem, 2014)", "key": {"[1]": {"molecular_target": "Platelet-derived growth factor receptor beta (Homo sapiens) (UniProt P09619)", "sequence (P09619 whole entry)": "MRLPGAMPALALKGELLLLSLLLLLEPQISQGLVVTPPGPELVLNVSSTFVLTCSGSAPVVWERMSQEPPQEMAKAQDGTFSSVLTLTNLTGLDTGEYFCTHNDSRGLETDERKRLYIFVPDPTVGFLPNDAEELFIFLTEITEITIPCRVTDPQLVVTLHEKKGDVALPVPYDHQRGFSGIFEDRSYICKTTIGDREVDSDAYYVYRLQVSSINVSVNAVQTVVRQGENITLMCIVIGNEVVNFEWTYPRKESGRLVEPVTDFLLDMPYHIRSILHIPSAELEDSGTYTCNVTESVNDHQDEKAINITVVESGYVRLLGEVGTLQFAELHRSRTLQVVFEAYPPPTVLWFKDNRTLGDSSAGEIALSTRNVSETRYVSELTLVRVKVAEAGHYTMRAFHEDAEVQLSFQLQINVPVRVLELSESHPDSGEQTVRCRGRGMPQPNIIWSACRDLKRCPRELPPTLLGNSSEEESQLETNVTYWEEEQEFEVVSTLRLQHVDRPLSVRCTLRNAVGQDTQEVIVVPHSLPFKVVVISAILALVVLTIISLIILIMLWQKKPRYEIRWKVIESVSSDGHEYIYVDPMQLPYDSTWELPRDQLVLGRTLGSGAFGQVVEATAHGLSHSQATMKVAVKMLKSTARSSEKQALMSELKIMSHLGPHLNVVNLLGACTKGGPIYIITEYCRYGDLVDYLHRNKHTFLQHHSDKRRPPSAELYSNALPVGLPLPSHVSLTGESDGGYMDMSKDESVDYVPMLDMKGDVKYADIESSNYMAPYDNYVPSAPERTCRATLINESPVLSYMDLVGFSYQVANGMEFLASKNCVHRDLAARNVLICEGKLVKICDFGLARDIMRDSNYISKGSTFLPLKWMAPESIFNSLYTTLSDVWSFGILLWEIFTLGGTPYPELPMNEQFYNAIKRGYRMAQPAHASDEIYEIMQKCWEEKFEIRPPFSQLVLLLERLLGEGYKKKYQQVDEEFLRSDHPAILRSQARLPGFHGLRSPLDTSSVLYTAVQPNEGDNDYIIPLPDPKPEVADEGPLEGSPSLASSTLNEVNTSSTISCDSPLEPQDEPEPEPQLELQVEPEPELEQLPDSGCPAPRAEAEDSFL", "assay": "Inhibition of PDGFRbeta (unknown origin) at 1 uM"}, "Aurora kinase B": {"molecular_target": "Aurora kinase B (Homo sapiens, UniProt Q96GD4)", "sequence (Q96GD4 whole entry)": "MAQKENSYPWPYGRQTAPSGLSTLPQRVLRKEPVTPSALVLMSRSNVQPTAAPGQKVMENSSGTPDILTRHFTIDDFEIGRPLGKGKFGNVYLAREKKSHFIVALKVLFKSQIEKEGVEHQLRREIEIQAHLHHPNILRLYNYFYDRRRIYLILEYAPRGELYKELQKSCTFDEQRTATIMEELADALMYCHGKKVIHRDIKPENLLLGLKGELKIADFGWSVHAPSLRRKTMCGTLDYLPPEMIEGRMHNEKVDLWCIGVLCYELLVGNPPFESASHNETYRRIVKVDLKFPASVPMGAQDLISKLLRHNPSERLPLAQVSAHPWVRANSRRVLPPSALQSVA", "assay": "Inhibition of Aurora B (unknown origin) using HLRRASLG substrate at 1 uM"}, "MV4-11": {"test_system": "MV4-11", "assay": "Cytotoxicity against human MV4-11 cells assessed as cell viability after 48 hrs by MTT assay", "type": "functional, cell-based", "settings": "Homo sapiens, MV4-11, 48 h"}, "[2]": {"molecular_target": "Aurora kinase C (Homo sapiens) (UniProt Q9UQB9)", "sequence (Q9UQB9 whole entry)": "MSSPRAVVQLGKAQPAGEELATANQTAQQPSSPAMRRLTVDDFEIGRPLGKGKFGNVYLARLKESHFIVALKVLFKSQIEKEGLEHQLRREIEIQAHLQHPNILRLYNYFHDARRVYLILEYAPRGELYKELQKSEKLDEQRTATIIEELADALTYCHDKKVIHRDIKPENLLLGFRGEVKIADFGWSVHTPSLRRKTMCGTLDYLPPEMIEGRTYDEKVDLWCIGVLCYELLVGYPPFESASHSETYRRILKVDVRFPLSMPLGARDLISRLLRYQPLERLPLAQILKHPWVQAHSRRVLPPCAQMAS", "assay": "Inhibition of Aurora C (unknown origin) at 1 uM"}, "[3]": {"assay": "Permeability coefficient of the compound at pH 7.4 by PAMPA-GIT assay", "type": "ADME", "settings": "read-out: Peff"}, "[4]": {"assay": "Ratio of solubility in PBS to solubility in DMSO", "type": "physicochemical"}, "[5]": {"molecular_target": "Aurora kinase A (Homo sapiens) (UniProt O14965)", "sequence (O14965 whole entry)": "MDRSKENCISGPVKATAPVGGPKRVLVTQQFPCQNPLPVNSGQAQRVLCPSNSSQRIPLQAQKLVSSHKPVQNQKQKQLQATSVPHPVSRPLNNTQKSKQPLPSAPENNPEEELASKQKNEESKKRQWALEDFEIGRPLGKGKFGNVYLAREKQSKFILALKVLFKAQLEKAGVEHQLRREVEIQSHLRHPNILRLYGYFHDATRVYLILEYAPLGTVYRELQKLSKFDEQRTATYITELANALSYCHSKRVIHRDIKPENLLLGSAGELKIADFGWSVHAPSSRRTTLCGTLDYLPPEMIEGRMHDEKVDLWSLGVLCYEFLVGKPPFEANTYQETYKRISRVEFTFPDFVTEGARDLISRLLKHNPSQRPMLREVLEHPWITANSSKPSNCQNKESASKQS", "assay": "Inhibition of Aurora A (unknown origin) at 1 uM"}, "[6]": {"assay": "Cytotoxicity against human HL60 cells assessed as cell viability after 48 hrs by MTT assay", "type": "functional, cell-based", "settings": "HL-60, 48 h"}, "MOLM-13": {"test_system": "MOLM-13", "assay": "Cytotoxicity against human MOLM13 cells assessed as cell viability after 48 hrs by MTT assay", "type": "functional, cell-based", "settings": "MOLM-13, 48 h"}, "[7]": {"molecular_target": "Platelet-derived growth factor receptor alpha (Homo sapiens) (UniProt P16234)", "sequence (P16234 whole entry)": "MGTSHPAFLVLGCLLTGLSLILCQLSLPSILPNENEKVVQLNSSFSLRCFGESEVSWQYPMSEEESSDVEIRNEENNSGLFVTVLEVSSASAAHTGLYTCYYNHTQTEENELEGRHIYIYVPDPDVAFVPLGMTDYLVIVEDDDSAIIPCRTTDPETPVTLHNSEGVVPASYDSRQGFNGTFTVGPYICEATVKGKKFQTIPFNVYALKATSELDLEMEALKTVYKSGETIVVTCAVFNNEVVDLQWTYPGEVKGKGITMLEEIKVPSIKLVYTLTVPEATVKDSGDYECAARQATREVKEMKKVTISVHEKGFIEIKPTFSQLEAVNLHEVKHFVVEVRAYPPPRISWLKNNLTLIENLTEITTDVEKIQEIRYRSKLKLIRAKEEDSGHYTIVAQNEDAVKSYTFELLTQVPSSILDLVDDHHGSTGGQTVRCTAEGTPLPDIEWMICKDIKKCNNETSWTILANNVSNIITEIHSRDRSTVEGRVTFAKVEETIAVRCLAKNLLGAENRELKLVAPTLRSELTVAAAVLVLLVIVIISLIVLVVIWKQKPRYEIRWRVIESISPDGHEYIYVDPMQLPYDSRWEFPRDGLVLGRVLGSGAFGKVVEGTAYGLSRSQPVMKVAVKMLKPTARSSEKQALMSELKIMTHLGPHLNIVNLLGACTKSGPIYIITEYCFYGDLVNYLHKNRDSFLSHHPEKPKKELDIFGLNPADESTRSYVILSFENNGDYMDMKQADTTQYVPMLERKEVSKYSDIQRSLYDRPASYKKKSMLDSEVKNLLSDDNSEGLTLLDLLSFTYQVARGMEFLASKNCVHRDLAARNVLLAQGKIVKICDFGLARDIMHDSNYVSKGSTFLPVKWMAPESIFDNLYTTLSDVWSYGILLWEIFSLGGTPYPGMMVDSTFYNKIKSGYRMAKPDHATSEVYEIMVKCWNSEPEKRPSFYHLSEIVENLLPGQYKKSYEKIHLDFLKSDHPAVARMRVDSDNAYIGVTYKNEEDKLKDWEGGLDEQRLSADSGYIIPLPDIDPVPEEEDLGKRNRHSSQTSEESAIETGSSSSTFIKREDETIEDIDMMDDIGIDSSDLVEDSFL", "assay": "Inhibition of PDGFRalpha (unknown origin) at 1 uM"}, "THP-1": {"test_system": "THP-1", "assay": "Cytotoxicity against human THP1 cells assessed as cell viability after 48 hrs by MTT assay", "type": "functional, cell-based", "settings": "Homo sapiens, THP-1, 48 h"}}, "data": [{"smiles": "COc1ccc(C(=O)NC(=O)Nc2ccc3c(c2)NC(=O)/C3=C\\c2ccc[nH]2)cc1", "values": [{"measurement": "inhibition", "setting": "[1]", "result": 35, "unit": "%"}, {"measurement": "inhibition", "setting": "Aurora kinase B", "result": 94, "unit": "%"}, {"measurement": "IC50", "setting": "MV4-11", "result": 29.3, "unit": "nM"}, {"measurement": "inhibition", "setting": "[2]", "result": 17, "unit": "%"}, {"measurement": "Papp", "setting": "[3]", "result": 0.67, "unit": "×10⁻⁶ cm/s"}, {"measurement": "Ratio", "setting": "[4]", "result": 0.37}, {"measurement": "inhibition", "setting": "[5]", "result": 11, "unit": "%"}, {"measurement": "IC50", "setting": "[6]", "result": 29.5, "unit": "nM"}, {"measurement": "IC50", "setting": "MOLM-13", "result": 18.1, "unit": "nM"}, {"measurement": "inhibition", "setting": "[7]", "result": 30, "unit": "%"}, {"measurement": "IC50", "setting": "THP-1", "result": 68.4, "unit": "nM"}]}]}
